From patent US10479795B2 (Incyte Corporation, priority 2016, dated 2019)
Counter-ions that a name gives are not always drawn. Like-named read-outs stand apart in the source and are kept apart here.

Tests used:
[1] = molecular target: PI3Kδ (p110δ/p85α) Recombinant Human Protein (Homo sapiens (Human), UniProt O00329); assay: PI3Kδ Scintillation Proximity Assay; type: biochemical
How it was run: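 Radiometric read-out: 33P-labelled PIP3 product captured on WGA SPA beads and counted, with IC50 fitted from percent activity relative to DMSO control. Enzyme (3.4 nM) was incubated 120 min at room temperature with 20 μM PIP2 and 2 μM ATP at pH 6.7, 2% DMSO.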

[2] = molecular target: PI3Kγ (p110γ) Recombinant Human Protein (Homo sapiens (Human), UniProt P48736); assay: PI3K-γ Scintillation Proximity Assay; type: biochemical; conditions: read-out: PI3Kγ IC50
How it was run: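 Radiometric SPA readout: […] bound to WGA beads after overnight shaking, IC50 derived from % activity of DMSO control. Reaction used human p110γ, 2 μM ATP, 20 μM PIP2, pH 6.7 MOPS buffer with MgCl2, DTT, CHAPS, 2% DMSO, room temperature.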

[3] = test system: Phosphorylated Ribosomal Protein S6 (RPS6); assay: THP-1 RPS6 ELISA Assay; type: cell-based, Human; conditions: THP-1 cells, read-out: PI3Kγ_THP1_RPS6_ELISA IC50
How it was run: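 IC50 values come from a curve of percent inhibition against log compound concentration, using phospho-RPS6 ELISA (450 nm) on THP-1 lysates. Cells were serum-starved overnight, exposed to compound for 2 h at 37 °C, then challenged 15 min with 10 nM MCP-1.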

Chain of PI3Kγ (p110γ) Recombinant Human Protein (P48736 whole entry): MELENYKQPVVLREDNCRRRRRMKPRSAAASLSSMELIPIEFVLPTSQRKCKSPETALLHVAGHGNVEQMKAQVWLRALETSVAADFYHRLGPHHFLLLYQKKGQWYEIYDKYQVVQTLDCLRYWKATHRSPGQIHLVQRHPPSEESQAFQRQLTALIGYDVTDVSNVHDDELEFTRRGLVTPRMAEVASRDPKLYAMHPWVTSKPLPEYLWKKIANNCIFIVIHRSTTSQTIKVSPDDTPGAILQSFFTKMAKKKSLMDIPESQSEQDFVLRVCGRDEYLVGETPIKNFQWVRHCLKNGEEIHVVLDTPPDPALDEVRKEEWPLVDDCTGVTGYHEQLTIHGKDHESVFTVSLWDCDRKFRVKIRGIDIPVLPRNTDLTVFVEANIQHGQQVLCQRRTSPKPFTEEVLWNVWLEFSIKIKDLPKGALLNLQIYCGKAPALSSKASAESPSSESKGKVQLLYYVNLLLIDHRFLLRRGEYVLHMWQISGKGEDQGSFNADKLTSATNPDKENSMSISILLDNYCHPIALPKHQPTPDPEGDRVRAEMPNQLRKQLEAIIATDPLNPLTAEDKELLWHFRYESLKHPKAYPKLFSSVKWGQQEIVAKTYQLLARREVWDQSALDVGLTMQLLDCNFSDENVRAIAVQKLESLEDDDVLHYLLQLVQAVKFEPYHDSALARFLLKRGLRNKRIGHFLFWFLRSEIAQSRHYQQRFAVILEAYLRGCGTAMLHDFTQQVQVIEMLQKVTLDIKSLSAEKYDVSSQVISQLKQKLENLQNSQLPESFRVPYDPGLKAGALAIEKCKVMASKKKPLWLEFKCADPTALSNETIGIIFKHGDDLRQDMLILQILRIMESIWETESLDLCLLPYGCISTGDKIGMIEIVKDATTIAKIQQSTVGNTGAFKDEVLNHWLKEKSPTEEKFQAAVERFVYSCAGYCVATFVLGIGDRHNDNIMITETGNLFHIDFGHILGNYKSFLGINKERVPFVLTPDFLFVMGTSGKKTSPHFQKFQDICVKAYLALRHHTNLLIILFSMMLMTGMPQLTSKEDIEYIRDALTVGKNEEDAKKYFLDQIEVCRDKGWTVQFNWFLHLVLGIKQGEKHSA
Chain of PI3Kδ (p110δ/p85α) Recombinant Human Protein (O00329 whole entry): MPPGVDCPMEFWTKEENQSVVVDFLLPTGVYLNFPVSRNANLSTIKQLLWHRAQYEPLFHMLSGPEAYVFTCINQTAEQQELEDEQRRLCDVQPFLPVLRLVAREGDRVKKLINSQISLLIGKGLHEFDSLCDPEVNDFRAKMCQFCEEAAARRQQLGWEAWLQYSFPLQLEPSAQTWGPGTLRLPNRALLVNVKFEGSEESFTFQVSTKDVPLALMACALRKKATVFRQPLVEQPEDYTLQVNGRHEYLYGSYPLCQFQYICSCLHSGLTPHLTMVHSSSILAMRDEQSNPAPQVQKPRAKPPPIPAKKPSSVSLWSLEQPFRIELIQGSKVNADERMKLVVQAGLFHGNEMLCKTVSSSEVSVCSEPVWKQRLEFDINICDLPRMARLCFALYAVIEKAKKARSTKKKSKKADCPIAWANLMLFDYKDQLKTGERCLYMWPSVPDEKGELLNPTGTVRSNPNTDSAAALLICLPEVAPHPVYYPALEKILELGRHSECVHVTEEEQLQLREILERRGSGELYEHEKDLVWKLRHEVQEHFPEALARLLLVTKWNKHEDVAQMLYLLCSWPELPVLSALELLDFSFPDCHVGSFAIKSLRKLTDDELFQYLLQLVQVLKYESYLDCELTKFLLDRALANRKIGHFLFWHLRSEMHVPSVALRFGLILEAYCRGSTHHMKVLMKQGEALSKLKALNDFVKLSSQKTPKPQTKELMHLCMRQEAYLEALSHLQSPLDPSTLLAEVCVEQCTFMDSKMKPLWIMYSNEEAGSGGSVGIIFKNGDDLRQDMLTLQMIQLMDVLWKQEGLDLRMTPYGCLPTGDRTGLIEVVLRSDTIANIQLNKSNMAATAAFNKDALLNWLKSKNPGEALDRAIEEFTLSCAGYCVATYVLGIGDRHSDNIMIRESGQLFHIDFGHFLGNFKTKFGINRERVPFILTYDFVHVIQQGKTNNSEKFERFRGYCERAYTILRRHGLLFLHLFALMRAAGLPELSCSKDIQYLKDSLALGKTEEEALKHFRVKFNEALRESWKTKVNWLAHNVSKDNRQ
Chain of PI3Kδ (p110δ/p85α) Recombinant Human Protein (P27986 whole entry partner): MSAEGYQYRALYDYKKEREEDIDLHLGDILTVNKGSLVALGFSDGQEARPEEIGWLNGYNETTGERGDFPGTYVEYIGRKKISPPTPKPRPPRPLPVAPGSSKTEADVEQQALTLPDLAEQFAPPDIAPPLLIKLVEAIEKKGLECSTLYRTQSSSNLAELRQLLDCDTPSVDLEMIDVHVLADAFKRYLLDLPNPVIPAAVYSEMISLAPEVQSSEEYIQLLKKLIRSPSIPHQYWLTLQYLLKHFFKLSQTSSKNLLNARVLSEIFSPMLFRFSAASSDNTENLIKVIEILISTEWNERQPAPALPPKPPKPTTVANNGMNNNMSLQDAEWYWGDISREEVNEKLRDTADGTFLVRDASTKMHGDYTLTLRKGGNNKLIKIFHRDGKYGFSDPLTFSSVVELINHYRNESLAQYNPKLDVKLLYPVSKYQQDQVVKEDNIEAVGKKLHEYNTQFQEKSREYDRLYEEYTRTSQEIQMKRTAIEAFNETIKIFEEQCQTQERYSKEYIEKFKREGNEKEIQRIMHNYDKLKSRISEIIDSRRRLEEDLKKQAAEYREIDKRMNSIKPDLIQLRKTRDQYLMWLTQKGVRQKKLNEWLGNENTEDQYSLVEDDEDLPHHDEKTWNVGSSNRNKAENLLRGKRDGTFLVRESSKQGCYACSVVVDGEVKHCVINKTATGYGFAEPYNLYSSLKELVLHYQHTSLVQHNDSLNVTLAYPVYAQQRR

Work on `Cc1ccc(S(=O)(=O)NCCCO)cc1-c1cnc2c(N)nccn12` [Example 50, 3-(8-Aminoimidazo[1,2-a]pyrazin-3-yl)-N-(3-hydroxypropyl)-4-methylbenzenesulfonamide] yielded an IC50 [1] of 0.5 to 2 µM, an IC50 [2] of less than 0.1 µM and an IC50 ([3]; Homo sapiens) greater than 1 µM.
Molecule `Cc1ccc(S(=O)(=O)N2CCC(O)CC2)cc1-c1cnc2c(N)nccn12` [Example 51, 1-{[3-(8-Aminoimidazo[1,2-a]pyrazin-3-yl)-4-methylphenyl]sulfonyl}piperidin-4-ol] has an IC50 [1] of 0.5 to 2 µM, an IC50 [2] of less than 0.1 µM and an IC50 ([3]; Homo sapiens) greater than 1 µM.
Work on `Cc1ccc(S(=O)(=O)N(C)[C@H]2CC[C@H](O)CC2)cc1-c1cnc2c(N)nccn12` [Example 52, 3-(8-Aminoimidazo[1,2-a]pyrazin-3-yl)-N-(trans-4-hydroxycyclohexyl)-N,4-dimethylbenzenesulfonamide] yielded an IC50 [1] of 0.1 to 0.5 µM, an IC50 [2] of less than 0.1 µM and an IC50 ([3]; Homo sapiens) of 0.5 to 1 µM.
With `CO[C@H]1CC[C@H](NS(=O)(=O)c2ccc(C)c(-c3cnc4c(N)nccn34)c2)CC1` [Example 53, 3-(8-Aminoimidazo[1,2-a]pyrazin-3-yl)-N-(trans-4-methoxycyclohexyl)-4-methylbenzenesulfonamide] the IC50 [1] was 0.5 to 2 µM, the IC50 [2] was less than 0.1 µM and the IC50 ([3]; Homo sapiens) was greater than 1 µM.
In the case of `Cc1ccc(S(=O)(=O)N[C@H]2C[C@H](O)C2)cc1-c1cnc2c(N)nccn12` [Example 54, 3-(8-Aminoimidazo[1,2-a]pyrazin-3-yl)-N-(trans-3-hydroxycyclobutyl)-4-methylbenzenesulfonamide], the IC50 [1] is reported as 0.1 to 0.5 µM, the IC50 [2] is reported as less than 0.1 µM and the IC50 ([3]; Homo sapiens) is reported as greater than 1 µM.
`Cc1ccc(S(=O)(=O)N[C@H]2CC[C@H](NC(=O)OC(C)(C)C)CC2)cc1-c1cnc2c(N)nccn12` [Example 55, tert-Butyl [trans-4-({[3-(8-aminoimidazo[1,2-a]pyrazin-3-yl)-4-methylphenyl]sulfonyl}amino)cyclohexyl]carbamate] showed an IC50 [1] greater than 2 µM, an IC50 [2] of less than 0.1 µM and an IC50 ([3]; Homo sapiens) greater than 1 µM.
`Cc1ccc(S(=O)(=O)N[C@H]2C[C@H](CO)C2)cc1-c1cnc2c(N)nccn12` [Example 56, 3-(8-Aminoimidazo[1,2-a]pyrazin-3-yl)-N-[trans-3-(hydroxymethyl)cyclobutyl]-4-methylbenzenesulfonamide] showed an IC50 [1] of 0.5 to 2 µM, an IC50 [2] of less than 0.1 µM and an IC50 ([3]; Homo sapiens) greater than 1 µM.
Molecule `Cc1ccc(S(=O)(=O)N[C@H]2CC[C@H](CO)OC2)cc1-c1cnc2c(N)nccn12` [Example 57, 3-(8-Aminoimidazo[1,2-a]pyrazin-3-yl)-N-[(3S,6R)-6-(hydroxymethyl)tetrahydro-2H-pyran-3-yl]-4-methylbenzenesulfonamide] has an IC50 [1] of 0.5 to 2 µM, an IC50 [2] of less than 0.1 µM and an IC50 ([3]; Homo sapiens) greater than 1 µM.
`Cc1ccc(S(=O)(=O)N[C@H]2CC[C@H](N)CC2)cc1-c1cnc2c(N)nccn12` [Example 58, N-(trans-4-Aminocyclohexyl)-3-(8-aminoimidazo[1,2-a]pyrazin-3-yl)-4-methylbenzenesulfonamide] was tested, and the IC50 [1] was 0.5 to 2 µM, the IC50 [2] was 0.1 to 0.5 µM and the IC50 ([3]; Homo sapiens) was greater than 1 µM.
`CC(=O)N[C@H]1CC[C@H](NS(=O)(=O)c2ccc(C)c(-c3cnc4c(N)nccn34)c2)CC1` [Example 59, N-[trans-4-({[3-(8-Aminoimidazo[1,2-a]pyrazin-3-yl)-4-methylphenyl]sulfonyl}amino)cyclohexyl]acetamide] showed an IC50 [1] of 0.5 to 2 µM, an IC50 [2] of less than 0.1 µM and an IC50 ([3]; Homo sapiens) greater than 1 µM.
In the case of `Cc1ccc(S(=O)(=O)N[C@H]2C[C@H](CO)C2)cc1-c1cnc2c(N)ncnn12` [Example 60, 3-(4-Aminoimidazo[1,2-f][1,2,4]triazin-7-yl)-N-[trans-3-(hydroxymethyl)cyclobutyl]-4-methylbenzenesulfonamide], the IC50 [1] is reported as 0.1 to 0.5 µM, the IC50 [2] is reported as less than 0.1 µM and the IC50 [3] is reported as 0.1 to 0.5 µM.
Molecule `Cc1ccc(S(=O)(=O)N[C@H]2C[C@@H](CO)C2)cc1-c1cnc2c(N)ncnn12` [Example 61, 3-(4-Aminoimidazo[2,1-f][1,2,4]triazin-7-yl)-N-[cis-3-(hydroxymethyl)cyclobutyl]-4-methylbenzenesulfonamide] has an IC50 [1] of 0.5 to 2 µM, an IC50 [2] of less than 0.1 µM and an IC50 ([3]; Homo sapiens) of 0.5 to 1 µM.
With `Cc1ccc(S(=O)(=O)N[C@H]2CC[C@H](CO)OC2)cc1-c1cnc2c(N)ncnn12` [Example 62, 3-(4-Aminoimidazo[2,1-f][1,2,4]triazin-7-yl)-N-[(3S,6R)-6-(hydroxymethyl)tetrahydro-2H-pyran-3-yl]-4-methylbenzenesulfonamide] the IC50 [1] was 0.1 to 0.5 µM, the IC50 [2] was less than 0.1 µM and the IC50 ([3]; Homo sapiens) was 0.1 to 0.5 µM.
Molecule `Cc1ccc(S(=O)(=O)N[C@H]2CC[C@@H](O)CC2)cc1-c1cnc2c(N)ncnn12` [Example 63, 3-(4-Aminoimidazo[2,1-f][1,2,4]triazin-7-yl)-N-(cis-4-hydroxycyclohexyl)-4-methylbenzenesulfonamide] has an IC50 [1] of 0.1 to 0.5 µM, an IC50 [2] of less than 0.1 µM and an IC50 ([3]; Homo sapiens) of 0.1 to 0.5 µM.
For `Cc1ccc(S(=O)(=O)NC2CC2)cc1-c1cnc2c(N)ncnn12` [Example 64, 3-(4-Aminoimidazo[2,1-f][1,2,4]triazin-7-yl)-N-cyclopropyl-4-methylbenzenesulfonamide], the IC50 [1] was greater than 2 µM, the IC50 [2] was less than 0.1 µM and the IC50 ([3]; Homo sapiens) was greater than 1 µM.
Work on `Cc1ccc(S(=O)(=O)NCCCO)cc1-c1cnc2c(N)ncnn12` [Example 65, 3-(4-Aminoimidazo[2,1-f][1,2,4]triazin-7-yl)-N-(3-hydroxypropyl)-4-methylbenzenesulfonamide] yielded an IC50 [1] greater than 2 µM, an IC50 [2] of less than 0.1 µM and an IC50 ([3]; Homo sapiens) greater than 1 µM.
`Cc1ccc(S(=O)(=O)NC2CCOCC2)cc1-c1cnc2c(N)ncnn12` [Example 68, 3-(4-Aminoimidazo[2,1-f][1,2,4]triazin-7-yl)-4-methyl-N-(tetrahydro-2H-pyrazn-4-yl)benzenesulfonamide] was tested, and the IC50 [1] was 0.5 to 2 µM, the IC50 [2] was less than 0.1 µM and the IC50 [3] was 0.5 to 1 µM.
In the case of `Cc1ccc(S(=O)(=O)N(C)[C@H]2CC[C@H](O)CC2)cc1-c1cnc2c(N)ncnn12` [Example 69, 3-(4-Aminoimidazo[2,1-f][1,2,4]triazin-7-yl)-N-(trans-4-hydroxycyclohexyl)-N,4-dimethylbenzenesulfonamide], the IC50 [1] is reported as 0.5 to 2 µM, the IC50 [2] is reported as less than 0.1 µM and the IC50 ([3]; Homo sapiens) is reported as 0.1 to 0.5 µM.
In the case of `CO[C@H]1CC[C@H](NS(=O)(=O)c2ccc(C)c(-c3cnc4c(N)ncnn34)c2)CC1` [Example 70, 3-(4-Aminoimidazo[2,1-f][1,2,4]triazin-7-yl)-N-(trans-4-methoxycyclohexyl)-4-methylbenzenesulfonamide], the IC50 [1] is reported as 0.5 to 2 µM, the IC50 [2] is reported as less than 0.1 µM and the IC50 ([3]; Homo sapiens) is reported as greater than 1 µM.
With `Cc1ccc(S(=O)(=O)N[C@H]2C[C@H](O)C2)cc1-c1cnc2c(N)ncnn12` [Example 71, 3-(4-Aminoimidazo[2,1-f][1,2,4]triazin-7-yl)-N-(trans-3-hydroxycyclobutyl)-4-methylbenzenesulfonamide] the IC50 [1] was greater than 2 µM, the IC50 [2] was less than 0.1 µM and the IC50 ([3]; Homo sapiens) was 0.1 to 0.5 µM.
`Cc1ccc(S(=O)(=O)N[C@H]2CC[C@H](NC(=O)OC(C)(C)C)CC2)cc1-c1cnc2c(N)ncnn12` [Example 72, tert-Butyl [trans-4-({[3-(4-aminoimidazo[2,1-f][1,2,4]triazin-7-yl)-4-methylphenyl]sulfonyl}amino)cyclohexyl]carbamate] was tested, and the IC50 [1] was greater than 2 µM, the IC50 [2] was less than 0.1 µM and the IC50 ([3]; Homo sapiens) was greater than 1 µM.
`Cc1ccc(S(=O)(=O)N[C@H]2CC[C@H](N)CC2)cc1-c1cnc2c(N)ncnn12` [Example 73, bis-hydrochloride] was tested, and the IC50 [1] was 0.5 to 2 µM, the IC50 [2] was less than 0.1 µM and the IC50 ([3]; Homo sapiens) was greater than 1 µM.
